Data as given in patent US20150087673A1, “METHODS FOR USING AND BIOMARKERS FOR AMPK-ACTIVATING COMPOUNDS” (RIGEL PHARMACEUTICALS, INC., priority 2013, published 2015).

System: AMPK
Assay: AMPK activation assay (enzyme-linked immunosorbent assay)
Type: cell-based
In short: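 Test compounds were added, and kinase activation was then detected by immunoassay following established kit procedures.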

Row | SMILES | EC50 [nM]
1 | N#Cc1ccc(OC2CCN(C(=O)c3ccc(C(=O)NC4CCN(Cc5ccc(F)cc5)CC4)nc3)CC2)cc1 [Compound 200, 5-(4-(4-cyanophenoxy)piperidine-1-carbonyl)-N-(1-(4-fluorobenzyl)piperidin-4-yl)picolinamide] | < 500
2 | NC(=O)c1ccc(CN2CCC(NC(=O)c3ccc(C(=O)N4CCN(Cc5ccc(F)cc5)CC4)cn3)CC2)cc1 [Compound 201, N-(1-(4-carbamoylbenzyl)piperidin-4-yl)-5-(4-(4-fluorobenzyl)piperazine-1-carbonyl)picolinamide] | 500 to 1000
3 | COc1ccc(CN2CCC(NC(=O)c3ccc(C(=O)N4CCC(Oc5ccc(S(C)(=O)=O)cc5)CC4)cn3)CC2)cc1 [Compound 202, N-(1-(4-methoxybenzyl)piperidin-4-yl)-5-(4-(4-(methylsulfonyl)phenoxy)piperidine-1-carbonyl)picolinamide] | < 500
4 | CS(=O)(=O)c1ccc(OC2CCN(C(=O)c3ccc(C(=O)NC4CCN(Cc5cc(F)cc(F)c5)CC4)nc3)CC2)cc1 [Compound 203, N-(1-(3,5-difluorobenzyl)piperidin-4-yl)-5-(4-(4-(methylsulfonyl)phenoxy)piperidine-1-carbonyl)picolinamide] | < 500
5 | COc1ccc(C(=O)C2CCN(C(=O)c3cnc(C(=O)Nc4ccc(Oc5ccc(F)cc5)nc4)cn3)CC2)cc1 [Compound 204, N-(6-(4-fluorophenoxy)pyridin-3-yl)-5-(4-(4-methoxybenzoyl)piperidine-1-carbonyl)pyrazine-2-carboxamide] | < 500
6 | O=C(Nc1ccc(Oc2ccc(F)cc2)nc1)c1cnc(C(=O)N2CCC(Oc3ccc(C(F)(F)F)cc3)CC2)cn1 [Compound 205, N-(6-(4-fluorophenoxy)pyridin-3-yl)-5-(4-(4-(trifluoromethyl)phenoxy)piperidine-1-carbonyl)pyrazine-2-carboxamide] | < 500
7 | O=C(Nc1ccc(Oc2ccc(F)cc2)nc1)c1cnc(C(=O)N2CCC(C(=O)c3ccc(F)cc3F)CC2)cn1 [Compound 206, 5-(4-(2,4-difluorobenzoyl)piperidine-1-carbonyl)-N-(6-(4-fluorophenoxy)pyridin-3-yl)pyrazine-2-carboxamide] | < 500
8 | CS(=O)(=O)c1ccc(OC2CCN(C(=O)c3cnc(C(=O)Nc4ccc(Oc5ccc(F)cc5)nc4)cn3)CC2)cc1 [Compound 207, N-(6-(4-fluorophenoxy)pyridin-3-yl)-5-(4-(4-(methylsulfonyl)phenoxy)piperidine-1-carbonyl)pyrazine-2-carboxamide] | < 500
9 | CS(=O)(=O)c1ccc(OC2CCN(C(=O)c3ccc(C(=O)NC4CCN(Cc5ccc(N6CCCC6)cc5)CC4)nc3)CC2)cc1 [Compound 208, 5-(4-(4-(methylsulfonyl)phenoxy)piperidine-1-carbonyl)-N-(1-(4-(pyrrolidin-1-yl)benzyl)piperidin-4-yl)picolinamide] | < 500
10 | N#Cc1ccc(CN2CCC(NC(=O)c3ccc(C(=O)N4CC(Oc5ccc(C#N)cc5)C4)cn3)CC2)cc1 [Compound 209, N-(1-(4-cyanobenzyl)piperidin-4-yl)-5-(3-(4-cyanophenoxy)azetidine-1-carbonyl)picolinamide] | < 500
11 | N#Cc1ccc(OC2CN(C(=O)c3ccc(C(=O)Nc4ccc(Oc5ccc(F)cc5)nc4)nc3)C2)cc1 [Compound 210, 5-(3-(4-cyanophenoxy)azetidine-1-carbonyl)-N-(6-(4-fluorophenoxy)pyridin-3-yl)picolinamide] | > 10000
12 | COc1ccc(C(=O)C2CCN(C(=O)c3cnc(C(=O)NC4CCN(Cc5ccc(C#N)cc5)CC4)cn3)CC2)cc1 [Compound 211, N-(1-(4-cyanobenzyl)piperidin-4-yl)-5-(4-(4-methoxybenzoyl)piperidine-1-carbonyl)pyrazine-2-carboxamide] | < 500
13 | N#Cc1ccc(CN2CCC(NC(=O)c3cnc(C(=O)N4CCC(Oc5ccc(C(F)(F)F)cc5)CC4)cn3)CC2)cc1 [Compound 212, N-(1-(4-cyanobenzyl)piperidin-4-yl)-5-(4-(4-(trifluoromethyl)phenoxy)piperidine-1-carbonyl)pyrazine-2-carboxamide] | < 500
14 | CS(=O)(=O)c1ccc(CN2CCC(NC(=O)c3ccc(C(=O)N4CCC(Oc5ccc(C#N)cc5)CC4)nc3)CC2)cc1 [Compound 214, 6-(4-(4-cyanophenoxy)piperidine-1-carbonyl)-N-(1-(4-(methylsulfonyl)benzyl)piperidin-4-yl)nicotinamide] | > 10000
15 | CS(=O)(=O)c1ccc(OC2CCN(C(=O)c3cnc(C(=O)NC4CCN(Cc5ccc(C#N)cc5)CC4)cn3)CC2)cc1 [Compound 218, N-(1-(4-cyanobenzyl)piperidin-4-yl)-5-(4-(4-(methylsulfonyl)phenoxy)piperidine-1-carbonyl)pyrazine-2-carboxamide] | < 500
16 | N#Cc1ccc(CN2CCC(NC(=O)c3cnc(C(=O)N4CCC(C(=O)c5ccc(N6CCCC6)cc5)CC4)cn3)CC2)cc1 [Compound 219, N-(1-(4-cyanobenzyl)piperidin-4-yl)-5-(4-(4-(pyrrolidin-1-yl)benzoyl)piperidine-1-carbonyl)pyrazine-2-carboxamide] | < 500
17 | CN1CCN(c2ccc(C(=O)C3CCN(C(=O)c4cnc(C(=O)NC5CCN(Cc6ccc(C#N)cc6)CC5)cn4)CC3)cc2)CC1 [Compound 220, N-(1-(4-cyanobenzyl)piperidin-4-yl)-5-(4-(4-(4-methylpiperazin-1-yl)benzoyl)piperidine-1-carbonyl)pyrazine-2-carboxamide] | < 500
18 | CS(=O)(=O)c1ccc(C(=O)C2CCN(C(=O)c3ccc(C(=O)Nc4ccc(Oc5ccc(F)cc5)nc4)cn3)CC2)cc1 [Compound 224, N-(6-(4-fluorophenoxy)pyridin-3-yl)-6-(4-(4-(methylsulfonyl)benzoyl)piperidine-1-carbonyl)nicotinamide] | < 500
19 | CS(=O)(=O)c1ccc(OC2CCN(C(=O)c3ccc(C(=O)NC4CCN(Cc5ccc(F)cc5)CC4)nc3)CC2)cc1 [Compound 226, N-(1-(4-fluorobenzyl)piperidin-4-yl)-5-(4-(4-(methylsulfonyl)phenoxy)piperidine-1-carbonyl)picolinamide] | < 500
20 | CS(=O)(=O)c1ccc(OC2CCN(C(=O)c3ccc(C(=O)NC4CCN(Cc5ccc(C#N)cc5)CC4)nc3)CC2)cc1 [Compound 227, N-(1-(4-cyanobenzyl)piperidin-4-yl)-5-(4-(4-(methylsulfonyl)phenoxy)piperidine-1-carbonyl)picolinamide] | < 500
21 | CS(=O)(=O)c1ccc(OC2CCN(C(=O)c3ccc(C(=O)NC4CCN(Cc5ccc(N6CCCC6)cc5)CC4)cn3)CC2)cc1 [Compound 230, 6-(4-(4-(methylsulfonyl)phenoxy)piperidine-1-carbonyl)-N-(1-(4-(pyrrolidin-1-yl)benzyl)piperidin-4-yl)nicotinamide] | 500 to 1000

Second part, the compound after the results:

Row | EC50 [nM] | SMILES
22 | < 500 | CS(=O)(=O)c1ccc(CN2CCC(NC(=O)c3ccc(C(=O)N4CCC(C(=O)c5ccc(F)cc5F)CC4)nc3)CC2)cc1 [Compound 213, 6-(4-(2,4-difluorobenzoyl)piperidine-1-carbonyl)-N-(1-(4-(methylsulfonyl)benzyl)piperidin-4-yl)nicotinamide]
23 | > 10000 | COc1ccc(C(=O)C2CCN(C(=O)c3ccc(C(=O)NC4CCN(Cc5ccc(S(C)(=O)=O)cc5)CC4)cn3)CC2)cc1 [Compound 215, 6-(4-(4-methoxybenzoyl)piperidine-1-carbonyl)-N-(1-(4-(methylsulfonyl)benzyl)piperidin-4-yl)nicotinamide]
24 | > 10000 | CS(=O)(=O)Nc1ccc(CN2CCC(NC(=O)c3ccc(C(=O)N4CCC(C(=O)c5ccc(F)cc5F)CC4)nc3)CC2)cc1 [Compound 216, 6-(4-(2,4-difluorobenzoyl)piperidine-1-carbonyl)-N-(1-(4-(methylsulfonamido)benzyl)piperidin-4-yl)nicotinamide]
25 | > 10000 | CS(=O)(=O)Nc1ccc(CN2CCC(NC(=O)c3ccc(C(=O)N4CCC(Oc5ccc(C#N)cc5)CC4)nc3)CC2)cc1 [Compound 217, 6-(4-(4-cyanophenoxy)piperidine-1-carbonyl)-N-(1-(4-(methylsulfonamido)benzyl)piperidin-4-yl)nicotinamide]
26 | 1000 to 5000 | CS(=O)(=O)c1ccc(C(=O)C2CCN(C(=O)c3ccc(C(=O)NC4CCN(Cc5ccc(C#N)cc5)CC4)cn3)CC2)cc1 [Compound 221, N-(1-(4-cyanobenzyl)piperidin-4-yl)-6-(4-(4-(methylsulfonyl)benzoyl)piperidine-1-carbonyl)nicotinamide]
27 | 1000 to 5000 | CS(=O)(=O)c1ccc(C(=O)C2CCN(C(=O)c3ccc(C(=O)NC4CCN(Cc5ccc(F)cc5)CC4)cn3)CC2)cc1 [Compound 222, N-(1-(4-fluorobenzyl)piperidin-4-yl)-6-(4-(4-(methylsulfonyl)benzoyl)piperidine-1-carbonyl)nicotinamide]
28 | 1000 to 5000 | COc1ccc(CN2CCC(NC(=O)c3ccc(C(=O)N4CCC(C(=O)c5ccc(S(C)(=O)=O)cc5)CC4)nc3)CC2)cc1 [Compound 223, N-(1-(4-methoxybenzyl)piperidin-4-yl)-6-(4-(4-(methylsulfonyl)benzoyl)piperidine-1-carbonyl)nicotinamide]
29 | < 500 | CS(=O)(=O)c1ccc(C(=O)C2CCN(C(=O)c3ccc(C(=O)NC4CCN(Cc5ccc(F)cc5)CC4)nc3)CC2)cc1 [Compound 225, N-(1-(4-fluorobenzyl)piperidin-4-yl)-5-(4-(4-(methylsulfonyl)benzoyl)piperidine-1-carbonyl)picolinamide]
30 | < 500 | CS(=O)(=O)c1ccc(C(=O)C2CCN(C(=O)c3ccc(C(=O)NC4CCN(Cc5ccc(C#N)cc5)CC4)nc3)CC2)cc1 [Compound 228, N-(1-(4-cyanobenzyl)piperidin-4-yl)-5-(4-(4-(methylsulfonyl)benzoyl)piperidine-1-carbonyl)picolinamide]
31 | 1000 to 5000 | CS(=O)(=O)c1ccc(C(=O)C2CCN(C(=O)c3ccc(C(=O)NC4CCN(Cc5ccc(N6CCCC6)cc5)CC4)cn3)CC2)cc1 [Compound 229, 6-(4-(4-(methylsulfonyl)benzoyl)piperidine-1-carbonyl)-N-(1-(4-(pyrrolidin-1-yl)benzyl)piperidin-4-yl)nicotinamide]
